Data taken from patent US20200392150A1, “Diaryl-B-Lactam Compound and Preparation Method and Pharmaceutical Use Thereof” (Fudan University, priority 2016, published 2020).
“Also recorded” adds a separate entry of the source.

Assays:
KM mice = assay: Acute toxicity assay; assay type: in vivo; details: single i.p. injection
Protocol: (§1) KM mice were housed individually in a specific pathogen free facility. Groups of mice (n=10 per group, half male and half female) were injected intraperitoneally once with various dosages of 69 (95, 70, 50, 35, 25 mg/kg), 70 (500, 425, 350, 275, 200 mg/kg), 97 (275, 200, 150, 125 and 100 mg/kg) or vehicle (8.3% cremohorp EL and 8.3% alcohol in PBS) as negative control, respectively. 69, 70 and 97 was dissolved in cremeohore EL and alcohol mixture (1:1, v/v) and further diluted with PBS (1:5, v/v). The death of mice were monitored daily and recorded up to 14 days after injection.

Acute toxicity assay = assay type: in vivo; details: both sexes, mouse, in vivo, ip; KM mice, single intraperitoneal injection, 14 days
Protocol: as §1

[1] = test system: Bax, p53 and cleaved-PARP in HeLa cells; assay: Expression level of apoptosis associated proteins; assay type: cell-based, human; details: western blotting and qPCR
Protocol: A. Western blotting: After being treated with candidate compound, cells were harvested and lysed. Then, the lysate was isolated by ultracentrifuge and quantified by BCA assay according to the protocol. After being denatured, equivalent protein of each sample was separated by SDSPAGE gel and wet-transferred onto 0.22 μm nitrocellulose membrane. After being blocked by PBS containing 5% skim milk, the membrane was incubated with primary antibody at 4° C. overnight and secondary antibody at room temperature for 2 h and then visualized by enhanced chemiluminescence kit (Thermo Fisher, USA), sequentially.
B. Quantitative PCR assay: HeLa cells were treated with 69, 70 or 97. The expression level of mRNA of target proteins was tested with qPCR kit (Takara).

A2780 = assay: In vitro cell growth inhibition assay (MTT); assay type: cell-based, human; details: A2780 human ovarian cancer cell line, 48 h, MTT; read-out: IC50 A2780
Summary of the method: (§2)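 IC50 values come from growth inhibition rates calculated from MTT absorbance at 540 nm. Compound exposure lasted 48 h on cells plated at 5000 per well.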

MDA-MB-231 = assay: In vitro cell growth inhibition assay (MTT); assay type: cell-based, human; details: MDA-MB-231 human breast cancer cell line, 48 h, MTT; read-out: IC50 MDA-MB-231
Summary of the method: as §2

SKOV3 = assay: In vitro cell growth inhibition assay (MTT); assay type: cell-based, human; details: SK-OV-3; SKOV-3 human ovarian cancer cell line, 48 h, MTT; read-out: IC50 SKOV3
Summary of the method: as §2

Hela = assay: In vitro cell growth inhibition assay (MTT); assay type: cell-based, human; details: Hela human cervical cancer cell line, 48 h, MTT; read-out: IC50 Hela
Summary of the method: as §2

Hela cells = assay: Cell cycle analysis; assay type: cell-based, human; details: 24 h
Protocol: 2*10^5 Hela cells per well were seeded into six-well plate and allowed to adhere overnight at 37° C. After treatment with indicated concentrations of 69, 70 and 97, CA-4 as positive control or diluent (0.2% DMSO) as negative control for 24 h, cells were harvested, washed twice with PBS and fixed with 75% ethanol at −20° C. overnight. Then cells were stained with propidium iodide dye (BD Biosciences) for 15 min in dark conditions at room temperature, followed by subjected to flow cytometry (Cytomics FC 500MPL, Beckman Coulter) detection. The results were analyzed by Multicycle AV (for Windows, version 320) software and indicated as mean values from three independent determinations.

COc1ccc([C@H]2[C@@H](C)C(=O)N2c2cc(OC)c(OC)c(OC)c2)cc1O [Compound 70, (3R,4R)-4-(3-hydroxy-4-methoxyphenyl)-3-methyl-1-(3,4,5-trimethoxyphenyl)azetidin-2-one]
No. of dead mice 5-14 days (KM mice; 200 mg/kg): 0 | No. of dead mice 1 day (KM mice; 200 mg/kg): 0 | No. of dead mice 2 days (KM mice; 200 mg/kg): 0 | No. of dead mice 3 days (KM mice; 200 mg/kg): 0 | No. of dead mice 4 days (KM mice; 200 mg/kg): 0 | Survival (%) on day 14 (KM mice; 200 mg/kg): 100% | Total death (KM mice; 200 mg/kg): 0 | No. of dead mice 5-14 days (KM mice; 275 mg/kg): 1 | No. of dead mice 1 day (KM mice; 275 mg/kg): 0 | No. of dead mice 2 days (KM mice; 275 mg/kg): 0 | No. of dead mice 3 days (KM mice; 275 mg/kg): 0 | No. of dead mice 4 days (KM mice; 275 mg/kg): 1 | Survival (%) on day 14 (KM mice; 275 mg/kg): 80% | Total death (KM mice; 275 mg/kg): 2 | No. of dead mice 5-14 days (KM mice; 350 mg/kg): 0 | No. of dead mice 1 day (KM mice; 350 mg/kg): 0 | No. of dead mice 2 days (KM mice; 350 mg/kg): 0 | No. of dead mice 3 days (KM mice; 350 mg/kg): 1 | No. of dead mice 4 days (KM mice; 350 mg/kg): 0 | Survival (%) on day 14 (KM mice; 350 mg/kg): 90% | Total death (KM mice; 350 mg/kg): 1 | No. of dead mice 5-14 days (KM mice; 425 mg/kg): 0 | No. of dead mice 1 day (KM mice; 425 mg/kg): 0 | No. of dead mice 2 days (KM mice; 425 mg/kg): 0 | No. of dead mice 3 days (KM mice; 425 mg/kg): 3 | No. of dead mice 4 days (KM mice; 425 mg/kg): 0 | Survival (%) on day 14 (KM mice; 425 mg/kg): 70% | Total death (KM mice; 425 mg/kg): 3 | No. of dead mice 5-14 days (KM mice; 500 mg/kg): 0 | No. of dead mice 1 day (KM mice; 500 mg/kg): 0 | No. of dead mice 2 days (KM mice; 500 mg/kg): 0 | No. of dead mice 3 days (KM mice; 500 mg/kg): 4 | No. of dead mice 4 days (KM mice; 500 mg/kg): 0 | Survival (%) on day 14 (KM mice; 500 mg/kg): 60% | Total death (KM mice; 500 mg/kg): 4 | LD50 at 14 days (Acute toxicity assay): > 500 mg/kg | expression of Bax, p53 and cleaved-PARP [1]: significantly promote the expression of the proapoptotic protein Bax, the tumor suppressor gene p53, and the cleaved DNA repair enzyme; also recorded: significantly induce the expression of Bax, p53 and cleaved-PARP | IC50 (A2780): 35 nM | IC50 (MDA-MB-231): 67 nM | IC50 (SKOV3): 51 nM | IC50 (Hela): 74 nM | cell cycle arrest (G2/M, mitotic arrest) (Hela cells): significantly arrest cells in the G2/M phase; also recorded: significantly induce cellular mitotic arrest

COc1ccc([C@H]2[C@H](C)C(=O)N2c2cc(OC)c(OC)c(OC)c2)cc1O [Compound 97, (3S,4R)-4-(3-hydroxy-4-methoxyphenyl)-3-methyl-1-(3,4,5-trimethoxyphenyl)azetidin-2-one]
No. of dead mice 5-14 days (KM mice; 100 mg/kg): 0 | No. of dead mice 1 day (KM mice; 100 mg/kg): 0 | No. of dead mice 2 days (KM mice; 100 mg/kg): 0 | No. of dead mice 3 days (KM mice; 100 mg/kg): 1 | No. of dead mice 4 days (KM mice; 100 mg/kg): 0 | Survival (%) on day 14 (KM mice; 100 mg/kg): 90% | Total death (KM mice; 100 mg/kg): 1 | No. of dead mice 5-14 days (KM mice; 125 mg/kg): 0 | No. of dead mice 1 day (KM mice; 125 mg/kg): 0 | No. of dead mice 2 days (KM mice; 125 mg/kg): 2 | No. of dead mice 3 days (KM mice; 125 mg/kg): 1 | No. of dead mice 4 days (KM mice; 125 mg/kg): 0 | Survival (%) on day 14 (KM mice; 125 mg/kg): 70% | Total death (KM mice; 125 mg/kg): 3 | No. of dead mice 5-14 days (KM mice; 150 mg/kg): 0 | No. of dead mice 1 day (KM mice; 150 mg/kg): 2 | No. of dead mice 2 days (KM mice; 150 mg/kg): 4 | No. of dead mice 3 days (KM mice; 150 mg/kg): 0 | No. of dead mice 4 days (KM mice; 150 mg/kg): 0 | Survival (%) on day 14 (KM mice; 150 mg/kg): 40% | Total death (KM mice; 150 mg/kg): 6 | No. of dead mice 5-14 days (KM mice; 200 mg/kg): 0 | No. of dead mice 1 day (KM mice; 200 mg/kg): 1 | No. of dead mice 2 days (KM mice; 200 mg/kg): 4 | No. of dead mice 3 days (KM mice; 200 mg/kg): 2 | No. of dead mice 4 days (KM mice; 200 mg/kg): 0 | Survival (%) on day 14 (KM mice; 200 mg/kg): 30% | Total death (KM mice; 200 mg/kg): 7 | No. of dead mice 5-14 days (KM mice; 275 mg/kg): 0 | No. of dead mice 1 day (KM mice; 275 mg/kg): 2 | No. of dead mice 2 days (KM mice; 275 mg/kg): 4 | No. of dead mice 3 days (KM mice; 275 mg/kg): 2 | No. of dead mice 4 days (KM mice; 275 mg/kg): 1 | Survival (%) on day 14 (KM mice; 275 mg/kg): 10% | Total death (KM mice; 275 mg/kg): 9 | expression of Bax, p53 and cleaved-PARP [1]: significantly promote the expression of the proapoptotic protein Bax, the tumor suppressor gene p53, and the cleaved DNA repair enzyme; also recorded: significantly induce the expression of Bax, p53 and cleaved-PARP | IC50 (A2780): 2 nM | IC50 (MDA-MB-231): 3 nM | IC50 (SKOV3): 3 nM | IC50 (Hela): 1 nM | cell cycle arrest (G2/M, mitotic arrest) (Hela cells): significantly arrest cells in the G2/M phase; also recorded: significantly induce cellular mitotic arrest
